Laboratory results as given in PubChem BioAssay (NCI).
Values joined by “and” are separate entries in the source; they are usually repeats but may differ in a detail not shown here. Identical values can stand only once.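 Test compounds were applied to cells in 96-well plates for 48 hours at 5 doses. The concentration for 50% growth inhibition is given as GI50. At the TGI there is no net growth.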

Tested on: MDA-MB-468 breast
Assay: NCI-60 cell line screen, 48 h

SMILES | GI50 | TGI
COc1cc(/C=C2\CCCC3=C2NC(C)=NC3c2cc(OC)c(OC)c(OC)c2)cc(OC)c1OC (stereo not drawn) | 1180 nM | 3.91 µM
COc1cc(NS(=O)(=O)c2ccc(-c3cnc(C4CC4)o3)cc2)ccc1F | 122 nM | 11.3 µM
Cc1ccc(NC(=O)c2sc3nc(C)c(C(O)c4ccccc4)cc3c2N)cc1 (stereo not drawn) | 349 nM | 50.7 µM
Cc1ccc2c3c(c(=O)[nH]c2c1)C1(C(C#N)=C(N)O3)c2cc(Br)ccc2-c2ccc(Br)cc21 | 1640 nM | 3.55 µM
COc1ncc(-c2ccc3ncnc(Nc4cccc(Cl)c4)c3c2)cc1NS(=O)(=O)CCN1CCOCC1 | < 10 nM | 0.437 µM
CCc1oc2ccccc2c1C(=O)c1cc(I)c(O)c(I)c1 | 2380 nM | 8.5 µM
CCCn1cnc2c(c1=N)C(c1ccc(F)cc1)c1sc3c(C)cccc3c1O2 (stereo not drawn) | 1290 nM | 19.2 µM
CC1(C)N=C(N)N=C(N)N1c1ccc(OCc2ccc(S(=O)(=O)F)c(Cl)c2)c(Cl)c1 | 2290 nM | > 100 µM
COc1ccc(-c2nnc(COc3ccc(NC(=O)Nc4ccc(Cl)c(C(F)(F)F)c4)cc3F)o2)cc1 | 2270 nM | 8.6 µM
C/C(=N\Nc1ccc(Cl)cn1)c1ccccn1 | 65.5 nM | 0.293 µM
COC(=O)C12C3C4C1C1C2C3C41NC(=O)c1csc([C@@H](C[C@H](C(C)C)N(C)C(=O)[C@@H](NC(=O)[C@H]2CCCCN2C)C2CC2)OC(C)=O)n1 (stereo partly drawn) | 19.8 nM | 31.5 µM
CCN(CC)CCCC(C)Nc1cnc(C(=O)Nc2cccc3ccc(OC)nc23)cn1 (stereo not drawn) | 1580 nM | 3.19 µM
COC(=O)c1c(C)[nH]c(/C=C2\N=C(c3ccc[nH]3)C=C2OC)c1C | 1200 nM | 2.73 µM
COc1ccc(OC)c(C(=O)c2oc3ccc(Br)cc3c2N)c1 | 206 nM | 5.22 µM
CC[CH2][Sn]([Cl])([Cl])[CH2]CC.Oc1ccccc1C=NCCN=Cc1ccccc1O | 1510 nM | 3.27 µM
Cc1ccc(NC(=O)NCCCOc2ccc(N3C(N)=NC(N)=NC3(C)C)cc2Cl)cc1S(=O)(=O)F | 17300 nM | > 100 µM
Cn1c2ccccc2c2c3[nH]c(=O)[nH]c(=O)c3c3c4ccccc4n(C)c3c21 | 3510 nM | 29.1 µM
O=C(/C=C\n1cnc(-c2cc(C(F)(F)F)cc(C(F)(F)F)c2)n1)NNc1cnccn1 | 92.3 nM | 0.657 µM
C=C1C(=O)O[C@H]2[C@H]1CC/C(COC(=O)c1cc3ccccc3s1)=C\CC[C@@]1(C)O[C@@H]21 | 1630 nM | 3.95 µM
Fc1ccc(-c2nn3ncccc3c2-c2ccnc(Nc3ccc4c(c3)OCCO4)n2)cc1 | 624 nM | 3.24 µM

SMILES | GI50 | TGI
Cc1cc(O)c(C(C)(C)C)cc1Sc1cc(C(C)(C)C)c(O)cc1C | 2090 nM | 5.12 µM
CC[C@H](C)[C@H]1O[C@]2(C=C[C@@H]1C)C[C@@H]1C[C@@H](C/C=C(\C)[C@@H](O[C@H]3C[C@H](OC)[C@@H](O[C@H]4C[C@H](OC)[C@@H](NC)[C@H](C)O4)[C@H](C)O3)[C@@H](C)/C=C/C=C3\CO[C@@H]4[C@H](O)C(C)=C[C@@H](C(=O)O1)[C@]34O)O2 | 1460 nM | 3.17 µM
COC(=O)[C@H](Cc1c[nH]c2ccccc12)NC(=O)[C@@H](OC)[C@@H]1Cc2cc3cc(OC4CC(OC5CC(O)C(O)C(C)O5)C(O)C(C)O4)c(C)c(O)c3c(O)c2C(=O)[C@H]1OC1CC(OC2CC(OC3CC(C)(O)C(O)C(C)O3)C(O)C(C)O2)C(O)C(C)O1 (stereo partly drawn) | 3.21 nM | 0.011 µM
O=S1(=O)N(CCNc2nccc(-c3c(-c4cccc(O)c4)nc4sccn34)n2)CCN1Cc1ccccc1 | 8460 nM | 27.9 µM
O=C1/C(=C/c2ccc(O)cc2)CSc2ccc(Cl)cc21 | 4840 nM | 28 µM
CN1CCN(c2ccc(Nc3nc(NCCCNS(=O)(=O)c4ccc(C(F)(F)F)cc4)c4sccc4n3)cc2)CC1 | 1730 nM | 3.56 µM
CC(C)(C)c1cc(NC(=O)Cc2ccc(-c3cnc4cc(-c5cnn(CCN6CCOCC6)c5)ccc4n3)cc2)no1 | 700 nM and 796 nM and 111 nM | 50 µM and > 100 µM and > 3 µM
C=C[C@H]1C[C@@H]2C[C@@H]3[C@H]4C/C=C\C(=O)NCCCC5NC(=O)C(=C(O)/C=C/[C@@H]4CC(=O)[C@H]3[C@@H]2[C@H]1C)C5=O (stereo partly drawn) | 1590 nM | 3.09 µM
Cc1c2cc(O)c(=O)cc-2oc2cc(O)c(O)cc12 | > 100000 nM | > 100 µM
CCOC(=O)c1c(C)nc2c(c1N)/C(=C/c1ccc(OC)cc1)C(=O)N2Cc1ccc(F)cc1 | 194 nM | 0.65 µM
CON(C)C(=O)N1N=C(c2cc(F)ccc2F)SC1(CCCN)c1ccccc1 (stereo not drawn) | < 10 nM | 1.57 µM and 0.456 µM
CCCCCN(CCCCC)CC(O)c1ccc(Cl)c2ccccc12 (stereo not drawn) | 11100 nM | 24 µM
N#Cc1cccc(NC(=O)c2cc(-c3ccc(F)cc3F)ccc2O)c1 | 1660 nM and 1450 nM | 5.94 µM and 6.4 µM
O=C(/C(=C/c1cccc([N+](=O)[O-])c1)c1ccccc1)c1ccccc1 | 2700 nM | 8.8 µM
C=C(C)C1CCC2(C(=O)O)CCC3(C)C(CCC4C5(C)CCC(OC(=O)NCc6ccccc6)C(C)(C)C5CCC43C)C12 (stereo not drawn) | 1730 nM | 34.7 µM
Cc1ccc(C(=O)Nc2ccc(CN3CCN(C)CC3)c(C(F)(F)F)c2)cc1C#Cc1cnc(N)c2ccccc12 | 620 nM | 1.64 µM
COc1ccc2nc3cc(Cl)ccc3c(NCCN)c2c1 | 1840 nM | 3.79 µM
Nc1nc(-c2cccc(Cl)c2)c(-c2ccc3ncccc3n2)s1 | > 15700 nM | > 25 µM
CC(C)(O)c1cncc(-c2ccc3ncc(C#N)c(N4CCc5cc(F)c(Cl)cc54)c3c2)c1 | 11800 nM | 30.6 µM
